Experiments:
mouse CD8 T cells = assay: Cytokine production by activated mouse CD8 T cells; type: cell-based
Procedure: MTA was added into culture for 72 h.
MTA was added into culture for 72 h. […] Therefore, a triple combination therapy with pemetrexed +A2BR antagonists+anti-PD-L1 (or anti-PD1) can be ultra-effective for MTAP-deficient malignancies through five different mechanisms: (1) direct cytotoxicity (from pemetrexed); (2) decrease of MTA levels (from pemetrexed cytotoxicity) and thus alleviation of inhibition of IFN signaling and T cell function; (3) increases in levels of tumor PD-L1 expression (from pemetrexed); (4) T cell activation by mitigating MTA inhibition (A2BR antagonists); and (5) further T cell activation by inhibiting checkpoint molecule PD-L1 (anti-PD-L1 or anti-PD1).

activated human T cells = conditions: incubation with MTA; cited from earlier work
PD-L1 [1] = assay: PD-L1 expression on tumor cells with anti-folate agents; conditions: both in vitro and in vivo
Text: Many types of tumors contain homozygous deletion of the methylthioadenosine phosphorylase (MTAP) gene, which encodes an essential enzyme to catalyze methylthioadenosine (MTA) in the salvage pathway for adenosine synthesis.

[2] = tested on: MTAP-deficient bladder cancer vs MTAP-wild type bladder cancer; assay: Response of bladder cancer patients to pemetrexed (RECIST); type: in vivo, human
Text: (§1) Asterisk represents a patient that died of a car accident and thus was not evaluable.
(§2) Pemetrexed inhibited MTAP-deficient human tumor growth (FIG. 2C) but not MTAP-wild type tumor growth (FIG. 2D) in a xenograft mouse model.

MB49 tumors = assay: Immune cells in MB49 tumors with in vivo pemetrexed treatment; conditions: FIG. 4B
Text: (§3) For example, pemetrexed induced PD-L1 in MTAP-deficient bladder cancer cell lines (FIG. 4A). […] Based on this, FIG. 6 provides a proposed phase 2 trial schema for combination treatment with pemetrexed and an anti-PD-L1 therapy (e.g., avelumab).

[3] = tested on: MTAP-knockdown human tumors; assay: Tumor growth in xenograft mouse model, MTAP-knockdown tumor; type: in vivo; conditions: FIG. 2E
Text: as §1, §2

[4] = tested on: MTAP-deficient human tumor; assay: Tumor growth in xenograft mouse model, MTAP-deficient tumor; type: in vivo; conditions: FIG. 2C
Text: as §1, §2

PD-L1 [5] = assay: PD-L1 expression in vivo on MB49 tumors; conditions: FIG. 4C
Text: as §3

MTAP-wild type tumor = assay: Tumor growth in xenograft mouse model, MTAP-wild type tumor; type: in vivo; conditions: FIG. 2D
Text: as §1, §2

PD-L1 [6] = assay: PD-L1 expression in MTAP-deficient bladder cancer cell lines after pemetrexed; type: cell-based; conditions: FIG. 4A
Text: as §3

[7] = tested on: MTAP-deficient vs. MTAP-wild type human bladder cancer cell lines; assay: Apoptosis (sub-G1 population) after pemetrexed in human bladder cancer cell lines; type: cell-based; conditions: FIG. 2A
Text: as §1, §2

[8] = tested on: MTAP knockdown human bladder cell lines; assay: Apoptosis (sub-G1 population) after MTAP knockdown in human bladder cancer cell lines; type: cell-based; conditions: FIG. 2B
Text: as §1, §2

Compound: N#Cc1c(N)nc(SCC(N)=O)c(C#N)c1-c1ccc(OCC2CC2)cc1 [Bay60-6385]
- production of INF-γ (mouse CD8 T cells; mouse CD8 T cells activated with anti-CD3/anti-CD28, 72 h, FIGS. 5A & 7A): mimic this inhibition
- production of TNF-α (mouse CD8 T cells; mouse CD8 T cells activated with anti-CD3/anti-CD28, 72 h, FIGS. 5B & 7B): mimic this inhibition

Compound: CSC[C@H]1O[C@@H](n2cnc3c(N)ncnc32)[C@H](O)[C@@H]1O [MTA, methylthioadenosine]
- cytotoxicity to activated human T cells (activated human T cells): cytotoxic

Compound: CCCn1c(=O)[nH]c2nc(-c3ccc(S(=O)(=O)N4CCN(c5ccc(Cl)cc5)CC4)cc3)[nH]c2c1=O [PSB-603]
- rescue of MTA-induced inhibition on the production of INF-γ (mouse CD8 T cells; PSB603+MTA, mouse CD8 T cells, FIG. 7A): partially rescue
- rescue of MTA-induced inhibition on the production of TNF-α (mouse CD8 T cells; PSB603+MTA, mouse CD8 T cells, FIG. 7B): partially rescue

Compound: Nc1nc2[nH]cc(CCc3ccc(C(=O)N[C@@H](CCC(=O)O)C(=O)O)cc3)c2c(=O)[nH]1 [Pemetrexed]
- PD-L1 expression on tumor cells (PD-L1 [1]): induce PD-L1 expression
- response rate, MTAP-deficient vs MTAP-wild type bladder cancer patients ([2]; combined retrospective and prospective data, FIG. 2H): higher response rate
- response rate, MTAP-deficient vs MTAP-wild type bladder cancer patients ([2]; prospective data, FIG. 2G): higher response rate
- response rate, MTAP-deficient vs MTAP-wild type bladder cancer patients ([2]; retrospective data, FIG. 2F): higher response rate
- CD4/8 T cells in tumors (MB49 tumors): increased
- MDSCs in tumors (MB49 tumors): decreased
- dendritic cells in tumors (MB49 tumors): increased
- macrophages in tumors (MB49 tumors): increased
- tumor growth [3]: inhibited growth
- tumor growth [4]: inhibited
- PD-L1 expression in vivo (PD-L1 [5]): induced PD-L1
- tumor growth (MTAP-wild type tumor): not
- PD-L1 expression (PD-L1 [6]): induced PD-L1
- potency in inducing apoptosis (sub-G1 population), MTAP-deficient vs. MTAP-wild type [7]: at least 40 fold
- apoptosis with pemetrexed treatment [8]: significant apoptosis

Compound: CN(Cc1cnc2nc(N)nc(N)c2n1)c1ccc(C(=O)N[C@@H](CCC(=O)O)C(=O)O)cc1 [methotrexate, Methotrexate]
- PD-L1 expression on tumor cells (PD-L1 [1]): induce PD-L1 expression

— US20220257603A1, “COMBINATION THERAPY FOR TREATING MTAP-DEFICIENT TUMORS” (Board of Regents, The University of Texas System, priority 2019, published 2022)
